In patent US20250034150A1, “BTK INHIBITORS” (BIOGEN MA INC., priority 2021, published 2025):
Where two headings read alike, the source gives them in different places.

Columns and labels:
BTK = target: T1, BTK (Homo sapiens, UniProt Q06187); assay: In Vitro BTK Kinase Assay: Btk-PolyGAT-LS Assay; format: biochemical; conditions: active BTK enzyme 0.25 nM, polyGAT 100 nM, 30 minutes, TRF readout; read-out: In Vitro BTK Kinase Assay IC50 Score
T1 construct: purchased Upstate 14-552
Summary of the method: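 IC50 values came from a four-parameter fit, with DMSO controls as 100% activity and EDTA controls as 0%. The signal was TR-FRET from a Tb-PY20 antibody binding fluorescein-polyGAT (100 nM) phosphorylated by 0.25 nM BTK. Kinase reactions used 10 μM ATP, a 4-fold compound titration, and ran 30 minutes before EDTA stop.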

[1] = test system: CD69 expression on CD19+ B cells in human whole blood; assay: In Vitro whole blood CD69 Assay; format: cell-based; conditions: B-cell, read-out: In Vitro HWB CD69 Assay IC50 Score
Summary of the method: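 Heparinized healthy-donor human whole blood was preincubated with compound (0.1% DMSO) for 30 min at 37 °C. Stimulation used 0.1 µg/mL anti-IgD-dextran or 20 µg/mL rabbit F(ab′)2 anti-IgD for 18–22 h at 37 °C. CD69 on gated CD19+ B cells was then measured by flow cytometry.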

[2] = human heparinized whole blood, anti-human IgD stimulation overnight, CD19+ B cells, flow cytometry

T1 sequence (Q06187 whole entry): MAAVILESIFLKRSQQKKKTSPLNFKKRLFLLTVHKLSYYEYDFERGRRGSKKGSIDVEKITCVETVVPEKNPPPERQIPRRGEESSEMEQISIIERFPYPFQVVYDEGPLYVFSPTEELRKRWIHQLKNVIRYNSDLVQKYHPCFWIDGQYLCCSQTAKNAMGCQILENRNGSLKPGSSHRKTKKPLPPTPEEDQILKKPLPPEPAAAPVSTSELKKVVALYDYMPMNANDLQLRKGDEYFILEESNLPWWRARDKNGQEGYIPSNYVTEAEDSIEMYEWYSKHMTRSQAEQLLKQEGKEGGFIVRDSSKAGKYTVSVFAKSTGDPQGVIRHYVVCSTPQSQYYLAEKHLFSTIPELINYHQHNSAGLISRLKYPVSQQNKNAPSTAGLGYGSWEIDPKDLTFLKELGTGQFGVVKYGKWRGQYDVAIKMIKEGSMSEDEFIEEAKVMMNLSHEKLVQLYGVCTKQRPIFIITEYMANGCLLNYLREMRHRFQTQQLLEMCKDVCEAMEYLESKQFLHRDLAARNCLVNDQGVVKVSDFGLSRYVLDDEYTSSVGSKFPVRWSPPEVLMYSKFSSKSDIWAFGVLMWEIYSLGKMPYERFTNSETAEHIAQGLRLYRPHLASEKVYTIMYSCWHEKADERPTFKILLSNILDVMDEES

Row | Compound | IC50 (BTK) [µM] | IC50 [1, 2] [µM] | IC50 ([1]; Homo sapiens) [µM]
1 | Cn1cc(-c2cn3nccc3c(-c3ccc(CNC(=O)c4noc(C(C)(C)C)n4)c(F)c3F)n2)cn1 [Example 88, 5-(tert-butyl)-N-(2,3-difluoro-4-(6-(1-methyl-1H-pyrazol-4-yl)pyrazolo[1,5-a]pyrazin-4-yl)benzyl)-1,2,4-oxadiazole-3-carboxamide] | < 0.001 | < 1 | 
2 | Cc1cc(-c2nc(-c3cnn(C)c3)cn3nccc23)ccc1CNC(=O)c1cnn(C(C)(C)C)c1 [Example 17, 1-(tert-butyl)-N-(2-methyl-4-(6-(1-methyl-1H-pyrazol-4-yl)pyrazolo[1,5-a]pyrazin-4-yl)benzyl)-1H-pyrazole-4-carboxamide] | < 0.001 | < 1 | 
3 | Cc1c(CNC(=O)c2noc(C(C)(C)C)n2)ccc(-c2nc(-c3cnn(C)c3)cc3nccn23)c1F [Example 79, 5-(tert-butyl)-N-(3-fluoro-2-methyl-4-(7-(1-methyl-1H-pyrazol-4-yl)imidazo[1,2-c]pyrimidin-5-yl)benzyl)-1,2,4-oxadiazole-3-carboxamide] | < 0.001 | < 1 | 
4 | Cn1cc(-c2cn3nccc3c(-c3ccc(CNC(=O)c4cnn(C(C)(C)C)n4)c(C(F)F)c3)n2)cn1 [Example 104, 2-(tert-butyl)-N-(2-(difluoromethyl)-4-(6-(1-methyl-1H-pyrazol-4-yl)pyrazolo[1,5-a]pyrazin-4-yl)benzyl)-2H-1,2,3-triazole-4-carboxamide] | < 0.001 | 1 to 10 | 
5 | Cn1cc(-c2cn3nccc3c(-c3ccc(CNC(=O)c4ccn(C(C)(C)C)n4)c(F)c3)n2)cn1 [Example 11, 1-(tert-butyl)-N-(2-fluoro-4-(6-(1-methyl-1H-pyrazol-4-yl)pyrazolo[1,5-a]pyrazin-4-yl)benzyl)-1H-pyrazole-3-carboxamide] | 0.001 to 0.01 | 1 to 10 | 
6 | Cc1c(CNC(=O)c2noc(C(C)(C)C)n2)ccc(-c2nc(-c3cnn(C)c3)cn3nccc23)c1F [Example 81, 5-(tert-butyl)-N-(3-fluoro-2-methyl-4-(6-(1-methyl-1H-pyrazol-4-yl)pyrazolo[1,5-a]pyrazin-4-yl)benzyl)-1,2,4-oxadiazole-3-carboxamide] | < 0.001 | < 1 | 
7 | Cn1cc(-c2cc(-c3ccc(CNC(=O)c4ccn(C(C)(C)C)n4)c(F)c3)c3ccnn3c2)cn1 [Example 70, 1-(tert-butyl)-N-(2-fluoro-4-(6-(1-methyl-1H-pyrazol-4-yl)pyrazolo[1,5-a]pyridin-4-yl)benzyl)-1H-pyrazole-3-carboxamide] | 0.001 to 0.01 | 1 to 10 | 
8 | Cn1cc(-c2cn3nccc3c(-c3ccc(CNC(=O)c4nc(C(C)(C)C)co4)cc3F)n2)cn1 [Example 110, 4-(tert-butyl)-N-(3-fluoro-4-(6-(1-methyl-1H-pyrazol-4-yl)pyrazolo[1,5-a]pyrazin-4-yl)benzyl)oxazole-2-carboxamide] | 0.001 to 0.01 | 1 to 10 | 
9 | Cn1cc(-c2cn3nccc3c(-c3cc(F)c(CNC(=O)c4nnn(C(C)(C)C)n4)cc3F)n2)cn1 [Example 99, 2-(tert-butyl)-N-(2,5-difluoro-4-(6-(1-methyl-1H-pyrazol-4-yl)pyrazolo[1,5-a]pyrazin-4-yl)benzyl)-2H-tetrazole-5-carboxamide] | < 0.001 | < 1 | 
10 | C[C@@H]1C[C@@H](CNC(=O)c2cn(C(C)(C)C)nn2)CCN1c1nc(-c2cnn(C)c2)cn2nccc12 (single isomer, unassigned) [Example 143] | 0.001 to 0.01 | 1 to 10 | 
11 | Cc1cc(-c2nc(N3CCOCC3)cn3nccc23)ccc1CNC(=O)c1cn(C(C)(C)C)nn1 [Example 120, 1-(tert-butyl)-N-(2-methyl-4-(6-morpholinopyrazolo[1,5-a]pyrazin-4-yl)benzyl)-1H-1,2,3-triazole-4-carboxamide] | 0.001 to 0.01 | 1 to 10 | 
12 | Cn1cc(-c2cn3nccc3c(-c3ccc(CNC(=O)c4noc(C(C)(C)C)n4)c(F)c3)n2)cn1 [Example 117, 5-(tert-butyl)-N-(2-fluoro-4-(6-(1-methyl-1H-pyrazol-4-yl)pyrazolo[1,5-a]pyrazin-4-yl)benzyl)-1,2,4-oxadiazole-3-carboxamide] | < 0.001 | < 1 | 
13 | Cn1cc(-c2cn3nccc3c(N3CCC(C)(CNC(=O)c4nnn(C(C)(C)C)n4)CC3)n2)cn1 [Example 43, 2-(tert-butyl)-N-((4-methyl-1-(6-(1-methyl-1H-pyrazol-4-yl)pyrazolo[1,5-a]pyrazin-4-yl)piperidin-4-yl)methyl)-2H-tetrazole-5-carboxamide] | 0.01 to 1 | 1 to 10 | 
14 | Cn1cc(-c2cn3nccc3c(-c3ccc(CNC(=O)c4cnn(C(C)(C)C)n4)cc3)n2)cn1 [Example 21, 2-(tert-butyl)-N-(4-(6-(1-methyl-1H-pyrazol-4-yl)pyrazolo[1,5-a]pyrazin-4-yl)benzyl)-2H-1,2,3-triazole-4-carboxamide] | < 0.001 | 1 to 10 | 
15 | Cn1cc(-c2cn3nccc3c(N3CC[C@H](CNC(=O)c4coc(C(C)(C)C)n4)[C@H](F)C3)n2)cn1 [Example 153, 2-(tert-butyl)-N-(((3S,4R)-3-fluoro-1-(6-(1-methyl-1H-pyrazol-4-yl)pyrazolo[1,5-a]pyrazin-4-yl)piperidin-4-yl)methyl)oxazole-4-carboxamide] | 0.001 to 0.01 | 1 to 10 | 
16 | Cn1cc(-c2cn3nccc3c(-c3ccc(CNC(=O)c4coc(C(C)(C)C)n4)cc3F)n2)cn1 [Example 109] | 0.001 to 0.01 | 1 to 10 | 
17 | Cc1cc(-c2nc(-c3cnn(C)c3)cn3nccc23)ccc1CNC(=O)c1nnc(C(C)(C)C)o1 [Example 14, 5-(tert-butyl)-N-(2-methyl-4-(6-(1-methyl-1H-pyrazol-4-yl)pyrazolo[1,5-a]pyrazin-4-yl)benzyl)-1,3,4-oxadiazole-2-carboxamide] | < 0.001 |  | < 1
18 | Cn1cc(-c2cn3nccc3c(N3CCC(C)(CNC(=O)c4noc(C(C)(C)C)n4)CC3)n2)cn1 [Example 41, 5-(tert-butyl)-N-((4-methyl-1-(6-(1-methyl-1H-pyrazol-4-yl)pyrazolo[1,5-a]pyrazin-4-yl)piperidin-4-yl)methyl)-1,2,4-oxadiazole-3-carboxamide] | 0.001 to 0.01 | 1 to 10 | 
19 | Cn1cc(-c2cn3nccc3c(-c3ccc(CNC(=O)c4noc(C(C)(C)C)n4)cc3F)n2)cn1 [Example 83, 5-(tert-butyl)-N-(3-fluoro-4-(6-(1-methyl-1H-pyrazol-4-yl)pyrazolo[1,5-a]pyrazin-4-yl)benzyl)-1,2,4-oxadiazole-3-carboxamide] | 0.001 to 0.01 | < 1 | 
20 | CC1CN(c2nc(-c3cnn(C)c3)cn3nccc23)CCC1CNC(=O)c1noc(C2(C)CC2)n1 (stereo not shown) [Example 149, N-((3-methyl-1-(6-(1-methyl-1H-pyrazol-4-yl)pyrazolo[1,5-a]pyrazin-4-yl)piperidin-4-yl)methyl)-5-(1-methylcyclopropyl)-1,2,4-oxadiazole-3-carboxamide] | 0.001 to 0.01 | 1 to 10 | 
